From US20050004007A1, “Promotion of adoptosis in cancer cells by co-administration of cyclin dependent kinase inhibitiors and cellular differentiation agents” (priority 2000, published 2005)

What was measured:
Type in all cases: cell-based, human
[1] = test system: p27KIP1; assay: Western analysis of p27KIP1 expression in U937 cells; conditions: 10 nM PMA, FP 50-100 nM, 24 h
Description: Western analysis. Equal quantities of protein (15 μg/condition for MAPK, 40 μg/condition for cytochrome c, or 25 μg/condition) were separated by SDS-PAGE [underphosporylated pRB (7.5%), poly(ADP-ribose)polymerase or PARP (8.0%), p44/p42 MAPK (10%), p21, p27, procaspase 3 (12%), and cytochrome c (15%)] and electroblotted onto nitrocellulose. Western analysis of p44/p42 MAPK protein was performed according to the manufacturer's instructions (New England Biolabs); otherwise, studies were performed as previously described [Wang et al, 1998]. Briefly, U937 cells (5×10^6) were pelleted by centrifugation, resuspended in 50 μl PBS, lysed by the addition of 2× Laemmli buffer and boiled for 5 min. Proteins were quantified with Coomassie protein assay reagent. Blots were blocked in PBS-T/5% milk, washed twice with PBS-T, and incubated overnight at 4° C. with the appropriate primary antibody. The blots were washed with PBS-T and incubated with a horseradish-peroxidase conjugated secondary antibody diluted appropriately in PBS-T/5% mill. […]
Alternatively, whole cell-pellets were washed twice in PBS, resuspended in PBS, and lysed by the addition of I volume of loading buffer. Lysates were boiled for 10 min, centrifuged at 12,800 g for 5 min and quantified using Coomassie protein assay reagent (Pierce, Rockfold, Ill.). […]

[2] = test system: pRb/E2F complexes; assay: pRb immunoprecipitation and EMSA of E2F in U937 cells; conditions: 8 h exposure; 10 nM PMA, 100 nM FP, 1 mM SB
Description: Electrophoretic Mobility Shift Assay (EMSA) and Immunoprecipitation (IP). Whole-cell extracts were prepared as previously described [Bagchi et al. 1990] and EMSA following IP was performed as previously reported [Chellapan et al. 1991]. Whole cell extracts (150 μg) were combined with 4 μl of anti-RB monoclonal antibody (Calbiochem) for the IP. Immunoprecipitated proteins were recovered on Protein A sepharose beads and dissociated by treatment with deoxycholate. The presence of E2F in the IP was monitored by EMSA as previously noted [Yee et al. 1987].
Immunoprecipitation and EMSA. Whole-cell extracts were prepared by hypotonic shock followed by salt extraction, as described previously (Chellappan et al., 1991). Portions (50 to 200 μg) of whole-cell extracts were treated with 5 μl of the appropriate primary antibody in a volume of 100 μl at 4° C. for 1 h. Then, 3 mg of protein A-Sepharose or protein G-Sepharose in a 100-μl volume was added and incubated for an additional hour. The binding was performed in a buffer containing 20 mM HEPES (pH 7.9), 40 mM KCl, 1 mM MgCl2, 0.1 mM EGTA, 0.1 mM EDTA, 0.1 mM DTT, 0.1 mM NaF, 0.1 mM Na3VO4, 0.5% NP-40, and 3 mg of BSA per ml. The beads were washed six times with 600 μl of the same buffer and boiled in 20 μl of SDS sample buffer. […] The gel was dried, and the bands were detected by autoradiography.

[3] = test system: cdk2 and cdk4; assay: Western analysis of cdk2/4-phosphorylated pRb in U937 cells; conditions: FP 100 nM, SB 1 mM
Description: Alternatively, whole cell-pellets were washed twice in PBS, resuspended in PBS, and lysed by the addition of I volume of loading buffer. Lysates were boiled for 10 min, centrifuged at 12,800 g for 5 min and quantified using Coomassie protein assay reagent (Pierce, Rockfold, Ill.). 25 μg of total proteins per point were separated by SDS-PAGE and electro-blotted to nitrocellulose. The blots were blocked in 5% non-fat milk in PBS-T and probed for 1 h with the appropriate dilution of primary antibody. Blots were washed 3×10 min in PBS-T and then incubated with a 1:2000 dilution of peroxidase-conjugated secondary antibody for 1 h at room temperature. Blots were again washed 3×10 min in PBS-T and then developed by enhanced chemiluminesence. Where indicated, blots were stripped and re-probed with antibodies directed against actin. […]

`CN1CC[C@H](c2c(O)cc(O)c3c(=O)cc(-c4ccccc4Cl)oc23)[C@H](O)C1` [FP, Flavopiridol] was tested, and the p27KIP1 expression [1] was “no effect”, the “E2F binding to labeled probe after pRb immunoprecipitation” value [2] was “clear reduction in E2F binding” and the “cdk2/4 activities (cdk2/4-phosphorylated pRb)” value [3] was “moderate inhibition”.
